Several values for one entry are separate records, joined by “and”; a condition that tells them apart may be missing. Identical values can stand only once. Like-named read-outs stand apart in the source and are kept apart here.
Experiments:
[1] = test system: AMPA glutamate (GluA2-containing); experiment: Radioligand binding assay, AMPA receptor (rat cerebral cortex); conditions: antagonist 1 μM
Description: Binding assays were conducted to evaluate the affinity of test compounds IEM-1460 and IEM-1925 (Eurofins Scientific, Inc.) for 15 targets: the human alpha-1 adrenergic (A1) receptor, histaminergic (H)-2 and−3 receptors, and muscarinic acetylcholine receptors-1 to−5 in transfected CHO cells by radioligand binding. The neuronal α4β2 and neuronal α7 cholinergic acetylcholine receptors were tested in transfected SH-SY5Y cells. The histaminergic-1 and−4 receptors were tested in transfected HEK-293 cells. Ion channel testing for AMPA and N-methyl-D-aspartate (NMDA) was performed in cells from the rat cerebral cortex. […] Non-specific binding was determined in the presence of 1 μM of DCPX. […] The filters were dried and then counted for radioactivity in a scintillation counter (Topcount, Packard) using a scintillation cocktail (Microscint 0, Packard). The results are expressed as a percent inhibition of the control radioligand specific binding: 100-[(measured specific binding)/(control specific binding) × 100]. […]
We tested the metabolic stability of the compounds with in vitro liver microsome stability assays (Table 1, right). […] We evaluated the compounds for potential toxicity with assays that test for inhibition of off-target ion channels and receptors. […]

[2] = Drug levels in blood, perilymph and CSF after IP injection (LC/MS); format: in vivo, guinea pig; conditions: for Kp / half-life: NIH-strain, pigmented, guinea pig; for Kp: ip; for half-life: blood, in vivo, IP injection: IEM-1460 13.5 mg/kg, IEM-1925 8 mg/kg, estimated from PK data, read-out: elimination half-life in blood
Description: After at least 30 min of baseline data, 1 mL of Lactated Ringer's was injected into the peritoneal space of the guinea pig as a vehicle control. Then, 13.5 mg/kg IEM-1460 or 8 mg/kg IEM-1925 in Lactated Ringer's was injected into the peritoneal space of the guinea pig. The entire experiment took ~3 h to complete: 1 h for anesthetic induction and surgery, 30 min for sound calibration and CAP threshold measurements, and 2 h for drug delivery, DPOAE and CAP measurements. After collection of perilymph and CSF, the animal was euthanized via saturated KCl delivered directly into the jugular vein.
General surgical scissors were used to clip the toenail at a 45° angle to collect blood with a premarked glass capillary tube during the baseline period and after drug injection. The exact volume was determined by measurement of the fluid meniscus in a calibrated capillary tube. […] Complete details used to perform apical fluid sampling are presented elsewhere and are only briefly provided here (Mynatt et al., [2006]). Similar to the apical cochlear fenestration used to deliver drugs (described above), the mucosa on the cochlea was cleared from two apical turns using a small cotton swab, and the bone at the apex was allowed to dry. A droplet of thin cyanoacrylate adhesive was applied and cup formed over the apex with silicone adhesive. A small perforation (50–100 μm diameter) was then made in the bone over scala vestibuli at the apex using a 30° pick. Upon perforation, fluid immediately started emerging, driven by intralabyrinthine pressure from CSF, and formed a bead within the hydrophobic silicone cup. A calibrated 5 μL capillary micropipette (VWR #5342-706, S. Plainfield, NJ) was held by hand in contact with the fluid at the apex, so that fluid was drawn into the capillary in ~30 s. The exact volume was determined by measurement of the fluid meniscus. Perilymph from the opposite ear was sampled prior to euthanizing the animal, then ~2 μL of CSF was aspirated by inserting a micropipette through the dura mater into the cisterna magna. After the fluid meniscus from the capillary tube was measured, the capillary tube was then flushed with 25.0 μL 50:50 methanol-water solvent to ensure that all the sample was collected.
The concentration of IEM-1460 in perilymph, blood, and CSF was analyzed using LC-MS (Confluence Life Sciences, St. Louis, MO). LC-MS-grade acetonitrile, LC-grade methanol, formic acid, sodium hydroxide 0.1 M, perfluoroheptanoic acid, formic acid, and hydrochloric acid were purchased from Sigma-Aldrich (USA). Deionized water (R > 18 MΩ/cm, TOC <10 ppb) was used throughout all these experiments. IEM-1460 and IEM-1925 were purchased from Tocris Bioscience (Bristol, UK). A 10 mM stock solution was made for both IEM-1460 and IEM-1925 in 50% aqueous methanol. For calibration of the specific compound concentration in the tested matrix (i.e., plasma or CSF/perilymph), a set of standard solutions were prepared by diluting concentrated stock solutions with 50% aqueous methanol into guinea pig plasma matrix or artificial perilymph (in mM: 127.5 NaCl, 3.5 KCl, 25 NaHCO3, 1.3 CaCl2, 1.2 MgCl2, 0.75 NaH2PO4, and 11 glucose) to have a set of standards from 1 to 300 ng/mL. […] Calibration standard samples using verapamil were prepared for each batch of samples ranging from 1 to 300 ng/mL and injected at both the beginning and end of the sample sequence. The methodology for LC-MS for blood has previously been described (Da Silva et al., [2016]; Guiraud et al., [2017]). Separation and analysis were performed on a LC instrument (Exion LC AD, AB SCIEX, USA) coupled to a Sciex QTRAP5500 with TurboV Ion Source (SCIEX, Concord, ON, Canada) equipped with a heated electrospray ionization (H-ESI) source. Chromatographic separation was obtained using a gradient elution on a reversed-phase Kinetex F5 (Phenomenex, Aschaffenburg, Germany) column (2.1 × 50 mm), packed with 1.7 μm diameter particles. […]

Compound | Mean% inhibition (N = 2) of radioligand binding [1] | time to plateau of blood plasma concentration ([2]; IP 13.5 mg/kg) | concentration in blood plasma at plateau ([2]; IP 13.5 mg/kg, average, N = 3) | concentration in blood ([2]; IP 13.5 mg/kg, converted from 7 μg/mL) | perilymph level as % of blood level ([2]; IP 13.5 mg/kg, ~2 h after injection, N = 3, 13.5 mg/kg) | concentration in perilymph ([2]; IP 13.5 mg/kg, ~2 h after injection, from blood level and perilymph/blood ratio, 13.5 mg/kg) | Kp ([2]; CSF relative to blood, 13.5 mg/kg, IP 13.5 mg/kg, ~2 h after injection, N = 3, read-out: CSF level as % of blood level) | half-life [2] | Kp ([2]; perilymph relative to blood, 13.5 mg/kg, IP 13.5 mg/kg, ~2 h after injection, N = 3, read-out: perilymph level as % of blood level) | LC/MS detection in perilymph or CSF ([2]; IP 8 mg/kg) | levels detected in blood ([2]; IP 8 mg/kg)
C[N+](C)(C)CCCCCNCC12CC3CC(CC(C3)C1)C2 [IEM-1460] | <1% | ≤ 30 min | ~ 7 μg/mL | 23.8 µM | 17–45% | 4–11 μM and ~ 7 μM | 0.08 to 0.23 | 1.97 h | ~0.3 |  | 
NCCCCCNC1(c2ccccc2)CCCCC1 [IEM-1925] | 9.5% |  |  |  |  |  |  | 1.13 h |  | did not detect significant | Very low levels
